# Experimental data as given in patent publication US20220267380A1, “Glycopeptides Increasing Lipid Synthesis” (TFCHEM, priority 2019, published 2022).
# Test system: normal human dermal fibroblasts (NHDF)
# Test: Signal transduction pathway analysis (Ingenuity Pathway Analysis, activation z-score)
# Details: 10 mg/ml
# Source text: Signal transduction pathway analysis: the results were then processed with IPA (Ingenuity Pathway Analysis, Qiagen®) software to identify signal transduction pathways modulated by each treatment. This software takes into account the Fold Change values of each gene and, when there is enough information, the direction of modulation of the signal transduction pathways can be identified. The relevance of the effect of each treatment on a given pathway was quantified by z-score. The z-score predicts the directional change on that effect.
# A more advanced bioinformatics analysis was performed using the Ingenuity Pathway Analysis software (IPA from Qiagen®). This analysis allows the identification of the impacted signaling pathways and predicts their modulation.
SMILES,result of the analysis of signaling pathways,"Activation z-score, Metabolism of cholesterol (positive = stimulation)","Activation z-score, synthesis of cholesterol (positive = stimulation)","Activation z-score, synthesis of lipid (positive = stimulation)"
N[C@@H](CCCCNCC(F)(F)[C@]1(O)O[C@H](CO)[C@H](O)[C@H](O)[C@H]1O)C(=O)O [Compound 3],predictive activation of the lipid synthesis and the cholesterol biosynthetic process at a transcriptional level,1.083,0.399,1.002
C[C@H](NC(=O)[C@H](C)NC(=O)[C@@H](N)CCCCNCC(F)(F)[C@]1(O)O[C@H](CO)[C@H](O)[C@H](O)[C@H]1O)C(=O)O [Compound 1],predictive activation of the lipid synthesis and the cholesterol biosynthetic process at a transcriptional level,–,2.169,2.668
CC(=O)N(CCCC[C@H](N)C(=O)O)CC(F)(F)[C@]1(O)O[C@H](CO)[C@H](O)[C@H](O)[C@H]1O [Compound 4],predictive activation of the fatty acid and lipid synthesis and a stimulation of the adipocytes differentiation,–,–,–
